Data taken from the OligoGym collection.
“And” between values parts separate entries of the source, which are not always exact repeats. Equal values may be shown once. These antisense oligonucleotides have a phosphorothioate backbone; sugars and methylation of C are not fully specified.

molecular target: BIRC3; conditions: ASO
Note: test concentration or dose not given here.

Sequence	remaining target (mRNA or protein) (fraction of control)
ATTTGTTACTGAAGAAGG	≥ 1
CTAACTCAAAGGAGGAAA	≥ 1
ACCATATTTCACTGATTC	0.3
ATATAACACAGCTTCAGC	≥ 1
GAAACCAAATTAGGATAA	0.88
AGCAAGCCACTCTGTCTC	0.5
TGTAGTGCTACCTCTTTT	0.31
GGTCAACTTCTCCAGGCT	0.35

molecular target: ICAM1; conditions: ASO

Sequence	remaining target (mRNA or protein) (fraction of control)
GGCTGAGGTTG	0.9
TGCTTACCCTCCCACAGCAG	0.1
GGAGCCATAGCGAGGC	0.35
GAGTAGCAGAGGAGC	0.61
CGATGGGCAGTGGGAAAG	0.95
CCCCGACTCACCTGGGAACAG	0.66
AGCCACCTGGGGGCCAAGGGG	≥ 1
GGAGCTCAGCGTCGA	0.85
TGGGAGCCATAGCGAG	0.55
GATGCTACACATGTC	0.58
AGCCATAGCGAGGC	0.64
GCTACACATGTCTATGGAGGG	0.35
GGTTGCAACTCTGAG	0.36
CATAGCGAGGCTGAGGTTGC	0.39
CCCCCACCACTTCCCCTCTC	0
AGCCATAGCGAGGCTGAGGTT	0.2
TGGGAGCCATAGCGAGGC	0.38
GGAAACCTCGCGC	0.91
GGGTTGAAGCCATTGCAGGG	0.45
CCCCCACCACTTCCCCTCTCA	0.07
GGGCGCGTGATCCTTATAGC	0.8
GACACTCAATAAATAGCTGGT	0.5

Sequence	remaining target (mRNA or protein) (fraction of control)
GGGCCACTTCTTCTGTAA	0.33
AGCGAGGCTG	0.97
TGCCCATCAGGGCAGTTTGA	0.4
TCTGAGTAGCAGAGGAGCTCA	0.3
AACCTCGCGC	0.96
CTCTGAGTAGCAGAGGAGCTC	0.17
GCTTTCCCGGAAACCTCGCGC	0.48
TGCCAGTCCACATAGTGTTT	0.25
CTATGGAGGGCCACTTC	0.39
TGCATCCCCCAGGCCACCAT	0
ACACATACACACACACACACA	0.54
GCCCATTGCAGGGCCAGGGC	0
CCTGTCCCGGGATAGGTTCA	0.4
CCAGAGGAAGTGGCTGAGGG	0.35
GAGGCTGAGGTGGGAGGA	0.98
GCGTCGACTGGGGCGCGTGAT	0.95
GGCAGAAATGTATGTGGGTGG	0.68
CTGAGGTTGC	0.95
CGGGGGCTGCTGGGAGC	0.76
AGCTGCGCTGCTACCTGCAC	0.25
CTCATCCAGCAGGCTCAGGG	0.75
TCTGAGTAGCAGAGGAGCTCAG	0.33

molecular target: TNF; conditions: ASO

Sequence	remaining target (mRNA or protein) (fraction of control)
AGAGCCACAATTCCCTTTCTA	0.2
AGTGAGTTCCGAAAGCCCATT	0.94
ACTTTCCCAGCAGGTATTTGG	0.88
CTTGAGCTCAGCTCCCTCAGG	0.45
GTCGCCTCACAGAGCAATGAC	≥ 1
GGGAAATTCCCAGGACCAGGG	≥ 1
ATTTGGAATTCCCAGAGTGGG	≥ 1
TATCTCCCTCGTCTCCCATCT	0.27
CCGTGCTCATGGTGTCCTTTC	0.51
GATCATGCTTTCCGTGCTCAT	0.94
GCTGAGCAGGTCCCCCTTCTC	0.8
GAAGCCTCCCCGCTCTTTGCC	0.25
CATTTCTTTTCCAAGCGAAC	0.94
GGTCTCCCTCCCCAACTCTCC	0.18
CCTATTCCCTTTCCTCCCAAA	0.14
AGGGAAGGAAGGAAGGAAGGG	≥ 1
CTGGTCTTTCCACGTCCCATT	0.17
TGATCCACTCCCCCCTCCACT	0.06 and 0.1
CTTCTTCCCTGTTCCCCTGGC	0.2
GCCTGAAGACAGCTTCCCAAC	0.24
GCAGCCTTGTCCCTTGAAGAG	0.73

Sequence	remaining target (mRNA or protein) (fraction of control)
CTGGTCCCTTGGTGTCCTCGC	0.69
TTCCCAACGCTGGGTCCTCCA	≥ 1
AAACTTACCTACGACGTGGGC	≥ 1
TAGACGATAAAGGGGTCAGAG	≥ 1
TCCACTCCCCCGATCCACTCA	0.11
TTGCTGTTCTCCCTCCTGGCT	0.15
CCCTTAGGTTTCCCAGCAAGC	0.38
CCTCGCTGAGTTCTGCCGGCT	0.99
AATAATAAATAATAAATAAAT	≥ 1
GGGATAGCTGGTAGTTTAG	≥ 1
GGCACTCACCTCCTCCTTGTT	0.94
CAGTCACGGCTCCCGTGGG	0.91
TTCTTGCCCTCCCTCCCTACT	0.12
GCTGGAAGACTCCTCCCAGGT	0.35
AGGCTCCTGTTTCCGGGGAGA	≥ 1
GTTTCCCCTCCATCTCCCTCC	0.26
ACACTTACTGAGTGTGAGGGT	≥ 1
CCTCTTTCCCTTACCCTCCTG	0.1
AAAGCTTTAAGTCCCCCGCCC	0.25
GGTTCCGTAAGGAAGGCTGG	0.94
CAGTCTGGGAAGCTCTGAGGG	≥ 1

molecular target: VCAM1; conditions: ASO

Sequence	remaining target (mRNA or protein) (fraction of control)
GCCTGGGAGGGTATTCAGCT	0.58
AACATCTCCGTACCATGCCA	0.25
CCCGGCATCTTTACAAAACC	0.45
CATCTCGATTTCTGG	0.47
GGCATTTTAAGTTGCTGTCG	0.34
AACTCCTCCAGTTCTCTCATC	0.12
CCTGAAGCCAGTGAGGCCCG	0.42
AACCCAGTGCTCCCTTTGCT	0.21
CCTGGGAGGGTATTC	0.39
CTTTGACTTCTTGCTCACAGC	0.07
CCCAGGCATTTTAAG	0.78
CGTGATGAAGAAAATAGTGGTT	0.49
CACGAGGCCACCACTCATCTC	0.05
CAGCCTGCCTTACTGTGGGC	0.67
CTTGAACAATTAATTCCACCT	0.37
CAGATCAGGGAACTCCTC	0.55
GGTATTCAGCTCCTGAAG	0.69
CGATGCAGATACCGCGGAGT	0.37
TGAACATATCAAGCATTAGC	0.53
TTTGTGTCCCACCTG	0.1
GGTTCCAAAACCCTT	0.42
CCCAGGCATTTTAAGTTGCTG	0.33

Sequence	remaining target (mRNA or protein) (fraction of control)
CTGTGTGTCCTGTCTCCGCT	0.27
CCACCACTCATCTCG	0.26
CCTGTGTGTGCCTGGGAGGG	0.88
CATCTTCCCAGGCAT	0.45
GGCCACATTGGGAAAGTTGC	0.29
CCTCCAGTTCTCTC	0.32
AACCCTTATTTGTGTCCCACC	0.09
CCTGAAGCCAGTGAGG	0.61
GCCTGGGAGGGTATTCAGCTC	0.3
ACCTGTGTGTGCCTGGGAGGG	0.26
TTTAAGCAATCTTGCTATGGC	0.81
ACGACCATCTTCCC	0.51
CCCATTCACGAGGCCACC	0.11
CCCTTATTTGTGTCCC	0.37
CGAGGCCACCACTC	0.16
CGACCATCTTCCCAGGCATTT	0.2
TTACCATTGACATAAAGTGTT	0.52
GTCTTTGTTGTTTTCTCTTCC	0.41
CTCTCATCTTGATGGC	0.55
GCCAGTGAGGCCCG	0.35
GCAATCTTGCTATGGCATAA	0.48
